Legend:
NIH3T3 cells = experiment: Cell-proliferative activity, NIH3T3 cells (MTT assay method, Cell Counting Kit-8); type: cell-based; settings: for Cell proliferation rate: 24 hours, no addition taken as 100
Procedure: NIH3T3 cells were cultured in a 96-well microplate to give a cell density of 10^5 cells/well, and solutions of concentration-adjusted test substance 1 and reference standard of sialic acid (N-acetylneuraminic acid produced by Wako Pure Chemical Industries, Ltd. and having a product number of 011-26173) were each added in an amount of 10 μl, followed by culture in a CO2 incubator for 24 hours (37° C., 4.5% CO2). Cell proliferation was measured by the MTT assay method using a kit (Cell Counting Kit-8 produced by DOJINDO Corporation and having a product number of 347-07621).
The cell proliferation rate was calculated at the respective additive concentrations of the test substance 1, with the value for no addition (0 mg/ml) of the test substance 1 being taken as 100.
The cell proliferation rate was calculated at the respective additive concentrations of the reference standard of sialic acid, with the value for no addition (0 mg/ml) of the reference standard of sialic acid being taken as 100.

IGF-1 = experiment: Ability to promote the production of insulin-like growth factor-1 (IGF-1) in mice; type: in vivo; settings: mice (n=5), in drinking water, 5 mg/kg weight/day, 3 weeks, ELISA; untreated control 0.03
Procedure: Each of the test substances produced in Example 1 and the reference standard of sialic acid (N-acetylneuraminic acid produced by Wako Pure Chemical Industries, Ltd. and having a product number of 011-26173) was dissolved in drinking water, and after adjustment of their concentrations, the individual solutions were administered to mice (n=5); the test substances were administered at 5 mg/kg weight/day. After rearing for 3 weeks, the concentration of IGF-1 in peripheral blood was examined by ELISA method.

Which Cell proliferation rate (NIH3T3 cells; additive concentration 0.08 mg/ml) does the source give for `CC(=O)N[C@H]1[C@H]([C@H](O)[C@H](O)CO)OC(O)(C(=O)O)C[C@@H]1O` (some centres unmarked) [Reference standard of sialic acid, N-acetylneuraminic acid] here?
Its Cell proliferation rate is 96.

And the Cell proliferation rate (NIH3T3 cells; additive concentration 0.31 mg/ml)?
Its Cell proliferation rate is 98.

What about the Cell proliferation rate (NIH3T3 cells; additive concentration 1.25 mg/ml) of the same molecule?
The Cell proliferation rate was 101.

What about the Cell proliferation rate (NIH3T3 cells; additive concentration 2.5 mg/ml) of the same molecule?
The Cell proliferation rate was 98.

What about the Cell proliferation rate (NIH3T3 cells; additive concentration 5.0 mg/ml) of the same molecule?
Its Cell proliferation rate is 99.

And the Cell proliferation rate (NIH3T3 cells; additive concentration 10.0 mg/ml)?
The Cell proliferation rate was 102.

What about the “Change in cell proliferation rate (in words)” value (NIH3T3 cells; additive concentrations up to 10.0 mg/ml) of the same molecule?
The value was “No change was recognized in the proliferation rate”.

And the “IGF-1 concentration in peripheral blood” value (IGF-1)?
The value was 4.4 µg/mL.

Reference: patent publication US10610537B2, “Methods of producing sialooligosaccharides and uses thereof” (MASAYOSHI LTD., priority 2016, dated 2020)
